Values after ≈ are worked out from the molar mass of the structure shown. Values joined by “and” are separate entries in the source; they are usually repeats but may differ in a detail not shown here. Identical values can stand only once. “Also recorded” adds a separate entry of the source. Like-named read-outs stand apart in the source and are kept apart here.
Columns and labels:
[1] = system: Nicotiana tabacum var. Samsun; experiment: In vivo toxicity against plant cells (leaf injection); settings: water solutions 1× MIC and 4× MIC injected into leaves, checked visually for 5 weeks
Experimental: Nicotiana tabacum var. Samsun was used for this test [88].
Nicotiana tabacum var. Samsun was used for this test. […] As the negative control, solutions of DMSO in the same concentration were used. The positive control was 5% DMSO, which should be toxic to the plant cells. The aqueous solutions were injected into the plant leaves by a syringe (needle 27G × ¾”) to fill area approx. 1 cm^2 [88]. The test was made in triplicates in three different plants. The plants were kept in a greenhouse on direct sunlight. The effect of the compounds was visually checked every day for 5 weeks.

[2] = system: Fusarium avenaceum (Fr.) Sacc. IMI 319947; experiment: In vitro antifungal activity, mycelial growth (MIC); type: cell-based; settings: Fusarium avenaceum; F. avenaceum mycelial growth
[3] = system: photosynthetic electron transport (PET) in spinach chloroplasts; experiment: Inhibition of photosynthetic electron transport (PET) in spinach chloroplasts (Hill reaction, DCPIP); type: biochemical, Spinacia oleracea L.
Experimental: Chloroplasts were prepared from spinach (Spinacia oleracea L.) according to Masarovicova and Kralova. The inhibition of photosynthetic electron transport (PET) in spinach chloroplasts was determined spectrophotometrically (Genesys 6, Thermo Scientific), using an artificial electron acceptor 2,6-dichlorophenol-indophenol (DCIPP) according to Kralova et al., and the rate of photosynthetic electron transport was monitored as a photoreduction of DCPIP. The measurements were carried out in phosphate buffer (0.02 mol/L, pH 7.2) containing sucrose (0.4 mol/L), MgCl2 (0.005 mol/L), and NaCl (0.015 mol/L). The chlorophyll content was 30 mg/L in these experiments, and the samples were irradiated (~100 W/m^2 with 10 cm distance) with a halogen lamp (250 W) using a 4 cm water filter to prevent warming of the samples (suspension temperature 22 °C). The studied compounds were dissolved in DMSO due to their limited water solubility.

[4] = system: Bipolaris sorokiniana (Sacc.) Shoemaker H-299; experiment: In vitro antifungal activity, mycelial growth (MIC); type: cell-based; settings: B. sorokiniana mycelial growth
[5] = system: Staphylococcus aureus ATCC 29213; experiment: In vitro antibacterial evaluation, broth dilution micro-method (MIC); type: cell-based; settings: Staphylococcus aureus, ATCC29213; S. aureus ATCC 29213, 24 h; read-out: MIC SA
MRSA SA 3202 = experiment: as above; type: cell-based, Staphylococcus aureus; settings: Staphylococcus aureus, MRSA, 24 h; read-out: MIC MRSA SA 3202
MRSA SA 630 = experiment: as above; type: cell-based, Staphylococcus aureus; settings: Staphylococcus aureus, MRSA, 24 h; read-out: MIC MRSA SA 630
MRSA 63718 = experiment: as above; type: cell-based, Staphylococcus aureus; settings: Staphylococcus aureus, MRSA, 24 h; read-out: MIC MRSA 63718
[6] = Lipophilicity determination by RP-HPLC (capacity factor k / log k); settings: C18, isocratic MeOH 72%/H2O 28%
THP-1 cells = experiment: In vitro antiproliferative assay (WST-1); type: cell-based, human; settings: WST-1, 24 h, highest concentration 30 μM, read-out: Tox IC50 (antiproliferative)
Experimental: The activity of this enzyme directly correlates with the number of metabolically active cells in the culture. […] Human monocytic leukemia THP-1 cells were used for in vitro antiproliferative assay. […] Cells were passaged at approximately one-week intervals. […] The maximum concentration of DMSO in the assays never exceeded 0.1%. Subsequently, the cells were incubated at 37 °C with 5% CO2 for 24 h. […] The median inhibition concentration values, IC50, were deduced through the production of a dose-response curve. All data were evaluated using GraphPad Prism 5.00 software (GraphPad Software, San Diego, CA, USA).

[7] = system: S. aureus ATCC 29213 biofilm formation; experiment: Biofilm inhibition assay (crystal violet); type: cell-based, Staphylococcus aureus; settings: sub-MIC concentrations

Row | SMILES | in vivo toxicity against plant cells [1] | MIC [2] | IC50 [3] [µM] | MIC [4] [µM] | MIC ([4]; Bipolaris sorokiniana) | MIC [5] | MIC (MRSA SA 3202) | MIC (MRSA SA 630) | MIC (MRSA 63718) | log k [6] | IC50 (THP-1 cells; Homo sapiens, THP-1, 24 h) [µM] | IC50 (THP-1 cells) [µM] | effect on biofilm formation [7] | MIC BS [4] [µM]
1 | O=C(/C=C/c1ccccc1)Nc1cccc(F)c1 [Compound 5, (2E)-N-(3-Fluorophenyl)-3-phenylprop-2-enamide] | nontoxic effect; also recorded: no visible influence on the plant tissue; also recorded: did not show any in vivo toxicity | – | – | – | – | – | – | – | – | – | – | – | – | –
2 | Cc1cccc(NC(=O)/C=C/c2ccccc2)c1 [Compound 2, (2E)-N-(3-Methylphenyl)-3-phenylprop-2-enamide] | nontoxic effect; also recorded: no visible influence on the plant tissue; also recorded: did not show any in vivo toxicity | 270 µM and 64 µg/mL | 343 | 33.71 (≈ 8 µg/mL) | 33.7 µM and 8 µg/mL | > 1080 µM and > 256 µg/mL | > 1080 µM and > 256 µg/mL | > 1080 µM and > 256 µg/mL | > 1080 µM and > 256 µg/mL | 0.2729 | ≥ 30 | > 30 | – | –
3 | O=C(O)c1cn(C2CC2)c2cc(N3CCNCC3)c(F)cc2c1=O [CPX, ciprofloxacin] | – | – | – | – | – | – | – | – | – | – | – | – | induction of biofilm formation | –
4 | O=C(/C=C/c1ccccc1)Nc1cc(Cl)cc(Cl)c1 [Compound 11, (2E)-N-(3,5-Dichlorophenyl)-3-phenylprop-2-enamide] | – | 219 µM and 64 µg/mL | 5.1 | – | 110 µM and 32 µg/mL | 438 µM and 128 µg/mL | 438 µM and 128 µg/mL | 109 µM and 64 µg/mL | 876 µM and 256 µg/mL | 0.815 and 0.8155 | ≥ 30 | 29.4 ± 1.73 | – | –
5 | O=C(/C=C/c1ccccc1)Nc1ccc(Cl)c(Cl)c1 [Compound 10, (2E)-N-(3,4-Dichlorophenyl)-3-phenylprop-2-enamide] | – | 219 µM and 64 µg/mL | 54.9 | – | 110 µM and 32 µg/mL | 438 µM and 128 µg/mL | 876 µM and 256 µg/mL | 438 µM and 128 µg/mL | 876 µM and 256 µg/mL | 0.682 and 0.6821 | ≥ 30 | 29.8 ± 0.31 | – | –
6 | O=C(/C=C/c1ccccc1)Nc1cc(Br)ccc1F [Compound 14, (2E)-N-(2-Fluoro-5-bromophenyl)-3-phenylprop-2-enamide] | nontoxic effect; also recorded: no visible influence on the plant tissue | 799 µM and 256 µg/mL | 188 | – | 50 µM and 16 µg/mL | > 799 µM and > 256 µg/mL | > 799 µM and > 256 µg/mL | > 799 µM and > 256 µg/mL | > 799 µM and > 256 µg/mL | 0.487 and 0.4875 | – | – | – | 49.98 to 66.32
7 | CC[C@@]1(O)C(=O)OCc2c1cc1n(c2=O)Cc2cc3ccccc3nc2-1 [CMP, camptothecin, reference compound] | – | – | – | – | – | – | – | – | – | – | 0.16 ± 0.07 | – | – | –

— paper PMC6121455, “Synthesis and Spectrum of Biological Activities of Novel N-arylcinnamamides” (International Journal of Molecular Sciences, 2018)
